{
  "source": "patent US20230097883A1",
  "about": "“ERGOTHIONEINE PET COMPOUNDS AND METHODS OF USE THEREOF” (VANDERBILT UNIVERSITY, priority 2021, published 2023)",
  "key": {"[1]": {"assay": "Nickel assay: 2D-HPLC with nickel HisTrap column and His-tag antibodies", "format": "binding", "description": "In principle, nickel is a transition metal like Fe, Cu and Zn. The nickel column can immobilize hexahistidine-tag (His-tag) recombinant proteins, such as recombinant antibodies harboring a His tag (His-Abs). In our experimental design, nickel forms a substantial coordination equilibrium with histidines via the imidazole ring structures to form a stable metal/ligand complex. This assay uses two different buffer reservoirs, a wash buffer (PBS) and an elution buffer (PBS containing 50 mM imidazole). To remove the His-Abs (14 KDa) from the nickel column, the washing buffer was switched to the elution buffer and the His-Abs dislodged from the column were detected by the 2D-HPLC (FIG. 3.1C, left). In a different phase of the experiment, the His-Abs solution was spiked with ERGO (14.5 mM) prior to injection into the HPLC system. […] The integrity of the eluted His-Abs was collected and confirmed by orbit trap mass spectrometry.\nERGO's metal-binding affinity was tested via a 2D-HPLC equipped with a nickel-based HisTrap HP column (Cytiva, Marlborough, Mass., USA). The 2D-HPLC was performed with a Hitachi LaChrom Elite L-2455 Diode Array Detector linked to a Hitachi L-2130 pump (Hitachi High-Technologies, Corp., Tokyo, Japan). […]"}, "[2]": {"assay": "Cupric ion chelating (CIC) assay", "format": "biochemical", "conditions": "increasing ERGO concentrations", "from_the_text": "We also assessed ERGO's transition metal scavenging using cupric ion chelating (CIC) and ferrous ion chelating (FIC) assays. In these experiments, pyrocatechol violet or ferrozine forms a complex with free Cu(II) or Fe(II), respectively, resulting in a chromophore with a strong absorbance signal. The pyrocatechol violet-COI) complex has an absorbance lambda max (λmax) at 630 nm, and ferrozine-Fe(II) has a λmax at 562 nm. In the presence of ERGO, fewer free metals are available to form these complexes, resulting in less absorbance.\nThe copper chelating activity of ERGO was determined using a CIC assay (Zen-Bio Inc., Durham, N.C.). Assays contained triplicated samples, standards, background, and max absorbance wells. All the assay absorbance values were subtracted from the average background absorbance, comprising of water and assay buffer (1:1). Maximal absorbance was measured by averaging the absorbance values of 3 wells containing only CuSO4 and assay buffer. […] The plate was then read at 632 nm using a Biotek Synergy 4 plate reader. Absorbances were averaged, and the background absorbance was subtracted from the sample and maximum averages (Abstest and Absmax). Cupric ion chelating percentage was then calculated using the following equation: Cupric ion chelating (%)=100×(Absmax−Abstest)/Absmax."}, "5XFAD mice": {"tested_on": "5XFAD mice", "assay": "Conditioned fear task after ERGO treatment", "format": "in vivo, mouse", "conditions": "ERGO-treated 5XFAD mice, novel context, 25 hours following training", "description": "To address our primary question whether longitudinal consumption of ERGO as a potent antioxidant benefit the brain, three cohorts of animals (n=12 non-treated WT control, n=12 non-treated 5XFAD, and n=18 ERGO-treated 5XFAD) were used (FIG. 3.2A). Starting at the age of 8 weeks, the animals were treated with high doses of ERGO solution (25-50 mg/Kg) formulated in double distilled (dd) water via oral gavage three times a week over the course of eight weeks. To reduce bias in the behavioral experiments with regard to the potential stress during gavage treatment, non-treated animals underwent the identical gavage process with the vehicle, water, only. The efficacy of the therapy was evaluated by behavioral testing, followed by three different non-invasive PET imaging sessions to assess biomarkers related to AD pathology. In addition to assessing Abeta levels and glucose metabolism using the [^11C]PIB and [^18F]FDG probes, respectively; we also tested for the first time whether oxidative stress could be used as an indicator of response to therapy using the [^11C]ERGO PET radioligand. Finally, animals were euthanized, and the brains were collected for immunohistochemical analysis. […]\nMice were placed in a sound-attenuating chamber with a wire grid floor capable of transmitting an electric shock. All movements were monitored by cameras fixed to the inside of the doors. […]"}},
  "note": "Entries after “also recorded” stand apart in the source; their conditions may differ.",
  "data": [
    {"smiles": "C[N+](C)(C)[C@@H](Cc1c[nH]c(=S)[nH]1)C(=O)[O-]", "note": "[ERGO, L-ergothioneine]", "values": [
      {"measurement": "elution of His-tag antibodies from the nickel column in the presence of ERGO", "setting": "[1]; His-Abs solution spiked with ERGO 14.5 mM, PBS wash buffer", "result": "eluted from the nickel column immediately by the wash buffer; also recorded: washed out immediately"},
      {"measurement": "elution of His-tag camelid antibodies from the nickel column in the presence of ERGO", "setting": "[1]; antibody injected with addition of ERGO 50 nM, PBS mobile phase", "result": "Right at the beginning of the run, His-tag camelid antibodies were eluted"},
      {"measurement": "absorbance signal of pyrocatechol violet-Cu(II) complex", "setting": "[2]", "result": "decreased as the concentrations of ERGO increased in a dose-dependent fashion"},
      {"measurement": "cue-based recall, freezing time while the cue was played", "setting": "5XFAD mice", "result": "~50", "unit": "%"}
    ]}
  ]
}
